Source: patent US20180303086A1, “An Antimicrobial Composition” (Conopco, Inc., d/b/a UNILEVER, priority 2015, published 2018)

Test: Solubility product and silver ion solubility of silver compounds in water at 25° C.
Assay type: physicochemical
Settings: calculated from Ksp, [Ag+]=(Ksp·x)^(1/(x+1))
Excerpt: More particularly, silver ion solubility [Ag+], a value given in mol/L may be calculated using the formula: […]

Silver Ion Solubility [Ag+]: 13 µM
Structure (SMILES): [Cl][Ag] [Silver chloride]
